The test has as its target T1, IDO1 (Homo sapiens, UniProt P14902).
T1 construct: endogenous in cells; host or cells: HeLa cells (ATCC), IFNgamma-induced
Nature of the test: IDO1 cell-based assay (HeLa cells, IFNgamma-induced, N-formylkynurenine/L-tryptophan by RFMS). The conditions noted are these: 10 ng/mL IFNgamma, 24 hours. Put shortly: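 HeLa cells stimulated with 10 ng/mL IFNgamma and exposed to compound (0.5% DMSO final) for 24 h at 37 °C. Conditioned media deproteinized, then N-formylkynurenine and L-tryptophan quantified by RapidFire MS with deuterated tryptophan internal standard; IC50 by curve fitting. Viability checked by CellTiter-Glo.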

The structures appear in SMILES notation.

T1 sequence (P14902 whole entry): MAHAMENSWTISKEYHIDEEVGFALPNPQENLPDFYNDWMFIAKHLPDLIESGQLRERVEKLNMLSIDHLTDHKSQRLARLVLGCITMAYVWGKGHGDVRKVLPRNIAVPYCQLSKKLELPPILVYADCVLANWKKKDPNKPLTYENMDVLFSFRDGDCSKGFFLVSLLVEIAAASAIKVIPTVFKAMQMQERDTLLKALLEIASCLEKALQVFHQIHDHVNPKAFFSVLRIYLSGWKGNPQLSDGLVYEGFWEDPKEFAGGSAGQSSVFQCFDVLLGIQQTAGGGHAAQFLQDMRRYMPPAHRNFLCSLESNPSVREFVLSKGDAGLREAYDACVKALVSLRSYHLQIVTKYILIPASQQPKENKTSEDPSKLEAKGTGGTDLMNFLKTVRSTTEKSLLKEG

In the case of `CCC(NC(=O)c1ccc(Cl)cc1)[C@H]1[C@@H]2C[C@@H](n3nncc3CO)C[C@@H]21` (stereo partly drawn) [Compound 155, 4-chloro-N-(1-((1R,3s,5S,6r)-3-(5-(hydroxymethyl)-1H-1,2,3-triazol-1-yl)bicyclo[3.1.0]hexan-6-yl)propyl)benzamide], the IC50 is 200 to 2000 nM.
Compound `CCC(NC(=O)c1ccc(Cl)cc1)[C@H]1[C@@H]2C[C@@H](NC(=O)N3CCNCC3)C[C@@H]21` (stereo partly drawn) [Compound 156, N-((1R,3s,5S,6r)-6-(1-(4-chlorobenzamido)propyl)bicyclo[3.1.0]hexan-3-yl)piperazine-1-carboxamide] yielded an IC50 greater than 5000 nM.
Then `CCC(NC(=O)c1ccc(Cl)cc1)[C@H]1[C@@H]2C[C@@H](NC(=O)N3CCOCC3)C[C@@H]21` (stereo partly drawn) [Compound 157, N-((1R,3s,5S,6r)-6-(1-(4-chlorobenzamido)propyl)bicyclo[3.1.0]hexan-3-yl)morpholine-4-carboxamide], with 200 to 2000 nM; and `CCC(NC(=O)c1ccc(Cl)cc1)[C@H]1[C@@H]2C[C@@H](NS(C)(=O)=O)C[C@@H]21` (stereo partly drawn) [Compound 159, 4-chloro-N-(1-((1R,3s,5S,6r)-3-(methylsulfonamido)bicyclo[3.1.0]hexan-6-yl)propyl)benzamide], with 200 to 2000 nM; and `CCC(NC(=O)c1ccc(Cl)cc1)[C@H]1[C@@H]2C[C@@H](NS(=O)(=O)C3(C)CC3)C[C@@H]21` (stereo partly drawn) [Compound 160, 4-chloro-N-(1-((1R,3s,5S,6r)-3-((1-methylcyclopropane)-1-sulfonamido)bicyclo[3.1.0]hexan-6-yl)propyl)benzamide], with 200 to 2000 nM.
The figure for `COC(=O)C(NC(=O)c1ccc(Cl)cc1)[C@H]1[C@@H]2C[C@@H](n3cc(C4CC4)nn3)C[C@@H]21` (stereo partly drawn) [Compound 169, methyl 2-(4-chlorobenzamido)-2-((1R,3s,5S,6r)-3-(4-cyclopropyl-1H-1,2,3-triazol-1-yl)bicyclo[3.1.0]hexan-6-yl)acetate] is 200 to 2000 nM; for `CCC(NC(=O)c1ccc(Cl)cc1)[C@H]1[C@@H]2C[C@@H](n3cnnc3C3CC3)C[C@@H]21` (stereo partly drawn) [Compound 172, 4-chloro-N-(1-((1R,3s, 5S, 6r)-3-(3-cyclopropyl-4H-1,2,4-triazol-4-yl)bicyclo[3.1.0]hexan-6-yl)propyl)benzamide] it is 200 to 2000 nM; for `COCC(NC(=O)c1ccc(Cl)cc1)[C@H]1[C@@H]2C[C@@H](n3cc(C4CC4)nn3)C[C@@H]21` (stereo partly drawn) [Compound 173, 4-chloro-N-(1-((1R,3s,5S,6r)-3-(4-cyclopropyl-1H-1,2,3-triazol-1-yl)bicyclo[3.1.0]hexan-6-yl)-2-methoxyethyl)benzamide] it is less than 200 nM.
The figure for `CCC(NC(=O)c1ccc(Cl)cc1)[C@H]1[C@@H]2C[C@@H](n3ncc4ccncc43)C[C@@H]21` (stereo partly drawn) [Compound 174, N-(1-((1R,3s,5S,6r)-3-(1H-pyrazolo[3,4-c]pyridin-1-yl)bicyclo[3.1.0]hexan-6-yl)propyl)-4-chlorobenzamide] is less than 200 nM.
`CCC(NC(=O)c1ccc(Cl)cc1)[C@H]1[C@@H]2C[C@@H](n3cc4cc(F)ccc4n3)C[C@@H]21` (stereo partly drawn) [Compound 207, 4-chloro-N-(1-((1R,3s,5S,6r)-3-(5-fluoro-2H-indazol-2-yl)bicyclo[3.1.0]hexan-6-yl)propyl)benzamide]: the IC50 is less than 200 nM.
For `C=C(C)c1cn([C@@H]2C[C@@H]3[C@H](C2)[C@H]3C(CC)NC(=O)c2ccc(Cl)cc2)nn1` (stereo partly drawn) [Compound 262, 4-chloro-N-(1-((1R,3S,5S,6r)-3-(4-(propen-2-yl)-1H-1,2,3-triazol-1-yl)bicyclo[3.1.0]hexan-6-yl)propyl)benzamide], the IC50 is less than 200 nM.
In the case of `CCC(NC(=O)c1ccc(Cl)cc1)[C@H]1[C@@H]2C[C@@H](Nc3c(F)cc(F)cc3[N+](=O)[O-])C[C@@H]21` (stereo partly drawn) [Compound 264, 4-chloro-N-(1-((1R,3s,5S,6r)-3-((2,4-difluoro-6-nitrophenyl)amino)bicyclo[3.1.0]hexan-6-yl)propyl)benzamide], the IC50 was less than 200 nM.
Then `CC[C@@H](NC(=O)c1ccc(Cl)cc1)[C@H]1[C@@H]2C[C@@H](c3ccnc4ccc(F)cc34)C[C@@H]21` [Compound 266, 4-chloro-N—((R)-1-((1R,3S,5S,6r)-3-(6-fluoroquinolin-4-yl)bicyclo[3.1.0]hexan-6-yl)propyl)benzamide], with less than 200 nM; and `CCC(NC(=O)c1ccc(Cl)cc1)[C@H]1[C@@H]2C[C@@H](Nc3ccc(C#N)cc3[N+](=O)[O-])C[C@@H]21` (stereo partly drawn) [Compound 269, 4-chloro-N-(1-((1R,3s,5S,6r)-3-((4-cyano-2-nitrophenyl)amino)bicyclo[3.1.0]hexan-6-yl)propyl)benzamide], with less than 200 nM.
The compound `CCC(NC(=O)c1ccc(Cl)cc1)[C@H]1[C@@H]2C[C@@H](Nc3ccc(Cl)cc3[N+](=O)[O-])C[C@@H]21` (stereo partly drawn) [Compound 270, 4-chloro-N-(1-((1R,3s,5S,6r)-3-((4-chloro-2-nitrophenyl)amino)bicyclo[3.1.0]hexan-6-yl)propyl)benzamide] registered an IC50 of less than 200 nM.
Then `CCC(NC(=O)c1ccc(Cl)cc1)[C@H]1[C@@H]2C[C@@H](n3cnc4cc(Cl)ccc43)C[C@@H]21` (stereo partly drawn) [Compound 272, 4-chloro-N-(1-((1R,3s,5S,6r)-3-(5-chloro-1H-benzo[d]imidazol-1-yl)bicyclo[3.1.0]hexan-6-yl)propyl)benzamide], with less than 200 nM; and `CC[C@@H](NC(=O)c1ccc(Cl)cc1)[C@H]1[C@@H]2C[C@@H](n3c(C(F)(F)F)nc4ccc(F)cc43)C[C@@H]21` [Compound 276, 4-chloro-N-((R)-1-((1R,3S,5S,6r)-3-(6-fluoro-2-(trifluoromethyl)-1H-benzo[d]imidazol-1-yl)bicyclo[3.1.0]hexan-6-yl)propyl)benzamide], with 200 to 2000 nM; and `CC[C@@H](NC(=O)c1ccc(C#N)cc1)[C@H]1[C@@H]2C[C@@H](c3ccnc4ccc(F)cc34)C[C@@H]21` [Compound 277, 4-cyano-N-((R)-1-((1R,3S,5S,6r)-3-(6-fluoroquinolin-4-yl)bicyclo[3.1.0]hexan-6-yl)propyl)benzamide], with less than 200 nM.
The figure for `C[C@@H](NC(=O)c1ccc(C#N)cc1)[C@H]1[C@@H]2C[C@@H](c3ccnc4ccc(F)cc34)C[C@@H]21` [Compound 278, 4-cyano-N-((R)-1-((1R,3S,5S,6r)-3-(6-fluoroquinolin-4-yl)bicyclo[3.1.0]hexan-6-yl)ethyl)benzamide] is less than 200 nM; for `CC[C@@H](NC(=O)c1ccc(Cl)cc1)[C@H]1[C@@H]2C[C@@H](c3ncnc4ccc(F)cc34)C[C@@H]21` [Compound 279, 4-chloro-N-((R)-1-((1R,3S,5S,6r)-3-(6-fluoroquinazolin-4-yl)bicyclo[3.1.0]hexan-6-yl)propyl)benzamide] it is less than 200 nM; for `O=C(NC[C@@H]1[C@H]2CN(c3ncnc4ccc(F)cc34)C[C@@H]12)c1ccc(Cl)cc1` [Compound 280, 4-chloro-N-(((1R,5S,6s)-3-(6-fluoroquinazolin-4-yl)-3-azabicyclo[3.1.0]hexan-6-yl)methyl)benzamide] it is 200 to 2000 nM.
The figure for `CC(C(=O)Nc1ccc(Cl)cc1)[C@H]1[C@@H]2C[C@@H](n3cnc4cc(F)c(F)cc43)C[C@@H]21` (stereo partly drawn) [Compound 281, N-(4-chlorophenyl)-2-((1R,3s, 5S, 6r)-3-(5,6-difluoro-1H-benzo[d]imidazol-1-yl)bicyclo[3.1.0]hexan-6-yl)propanamide] is less than 200 nM; for `CC[C@@H](NC(=O)c1ccc(C#N)cc1)[C@H]1[C@@H]2CC(N=[N+]=[N-])C[C@@H]21` (stereo partly drawn) [Compound 283, N-((1R)-1-((1R,5S,6r)-3-azidobicyclo[3.1.0]hexan-6-yl)propyl)-4-cyanobenzamide] it is less than 200 nM.
The compound `CC[C@@H](NC(=O)c1ccc(Cl)cc1)[C@H]1[C@@H]2C[C@@H](Nc3cc(Cl)ccc3[N+](=O)[O-])C[C@@H]21` [Compound 284, 4-chloro-N-((R)-1-((1R,3S,5S,6r)-3-((5-chloro-2-nitrophenyl)amino)bicyclo[3.1.0]hexan-6-yl)propyl)benzamide] displayed an IC50 of less than 200 nM.
`CC[C@@H](NC(=O)c1ccc(Cl)cc1)[C@H]1[C@@H]2C[C@H](c3ccnc4ccc(F)cc34)C[C@@H]21` [Compound 286, 4-chloro-N-((R)-1-((1R,3R,5S,6r)-3-(6-fluoroquinolin-4-yl)bicyclo[3.1.0]hexan-6-yl)propyl)benzamide] had an IC50 of less than 200 nM.
With `CCOC(=O)C(C(=O)OCC)[C@@H]1C[C@@H]2[C@H](C1)[C@H]2[C@@H](CC)NC(=O)c1ccc(Cl)cc1` [Compound 290, diethyl 2-((1R,3S,5S,6r)-6-((R)-1-(4-chlorobenzamido)propyl)bicyclo[3.1.0]hexan-3-yl)malonate], the IC50 was less than 200 nM.
Then `CC[C@@H](NC(=O)c1ccc(Cl)cc1)[C@H]1[C@@H]2C[C@@H](C(CO)CO)C[C@@H]21` [Compound 291, 4-chloro-N—((R)-1-((1R,3S,5S,6r)-3-(1,3-dihydroxypropan-2-yl)bicyclo[3.1.0]hexan-6-yl)propyl)benzamide], with 200 to 2000 nM.
Consider `CC[C@@H](NC(=O)c1ccc(Cl)cc1)[C@H]1[C@@H]2C[C@@H](c3cnn(C4CC4)c3)C[C@@H]21` [Compound 292, 4-chloro-N—((R)-1-((1R,3S,5S, 6r)-3-(1-cyclopropyl-1H-pyrazol-4-yl)bicyclo[3.1.0]hexan-6-yl)propyl)benzamide], for which the IC50 is less than 200 nM.
On to `CC[C@@H](NC(=O)c1ccc(C#N)cc1)[C@H]1[C@@H]2C[C@@H](n3c(C)nc4ccc(C#N)cc43)C[C@@H]21` [Compound 293, 4-cyano-N-((R)-1-((1R,3S,5S,6r)-3-(6-cyano-2-methyl-1H-benzo[d]imidazol-1-yl)bicyclo[3.1.0]hexan-6-yl)propyl)benzamide], for which the 50% inhibitory concentration (IC50) was 200 to 2000 nM.

Values taken from patent US11173145B2, “Compounds useful as inhibitors of indoleamine 2,3-dioxygenase and/or tryptophan dioxygenase” (Board of Regents, The University of Texas System, priority 2017, dated 2021).
